Results published in article PMC10724293, “New ruthenium-xanthoxylin complex eliminates colorectal cancer stem cells by targeting the heat shock protein 90 chaperone” (Cell Death & Disease, 2023).
pIC50: −log10 of the molar value. Where “and” joins values, the source holds several entries; their conditions need not be identical. Equal values may be shown once.

Legend:
HCT116 cells [1] = test: qPCR array of human cancer drug target genes; format: cell-based; parameters: key to RQ, gene BCL2 / RQ, gene IGF1R / RQ, gene KDR / RQ, gene EGFR / RQ, gene CTSB / RQ, gene RHOA / RQ, gene ESR1 / RQ, gene MDM2 / RQ, gene MDM4 / RQ, gene TOP2A / RQ, gene TOP2B / RQ, gene ATF2 / RQ, gene NFKB1 / RQ, gene TP53 / RQ, gene AURKC / RQ, gene CDC25A / RQ, gene CDK1 / RQ, gene CDK2 / RQ, gene CDK5 / RQ, gene CDK8 / RQ, gene NTN3 / RQ, gene HRAS / RQ, gene KRAS: 2^−ΔΔCT relative quantification vs DMSO control (calibrator = 1); conditions: 10 µM, 12 h; CTL = 1.0
Experimental: Total RNA was isolated using the RNeasy Plus Mini Kit (Qiagen; Hilden, Germany) according to the manufacturer’s instructions. The RNA was tested for purity and quantified using a NanoDrop® 1000 spectrophotometer (Thermo Fisher Scientific, Waltham, Massachusetts, USA). The Superscript VILOTM Kit was used for RNA reverse transcription (Invitrogen Corporation; Waltham, MA, USA). TaqMan® array human cancer drug targets 96-well plate, fast (ID RPRWENH, Applied BiosystemsTM, Foster City, CA, USA) was used for gene expression quantification by qPCR. The reactions were carried out in an ABI ViiA7 system (Applied BiosystemsTM).
The cycle conditions were 2 min at 50 °C, 10 min at 95 °C, and 40 cycles of 15 s at 95 °C and 1 min at 60 °C. All experiments were carried out in DNase/RNase-free environments. The 2^−ΔΔCT method was used to calculate the relative quantification (RQ) of mRNA expression using Gene Expression SuiteTM Software (Applied BiosystemsTM), and cells treated with the negative control (0.2% DMSO) served as a calibrator. The RQs of the reference genes HPRT1, TFRC and YWHAZ were used to normalize the reactions.

HCT116 cells [2] = test: Colony-forming assay; format: cell-based, human; conditions: 24, 48, 72 h treatment, 14 days culture
Experimental: To test clonogenic ability, 1000 cells were seeded in 6-well plates with 6 ml of complete medium and incubated with the drug for 24, 48, and 72 h. The medium was then changed to drug-free fresh medium and cultured for a total of 14 days. The cells were then fixed in methanol and stained with 0.5% crystal violet. The number of colonies with more than 50 cells was counted using an optical microscope (Nikon, TS100).

PBMC = test: Alamar blue cytotoxicity assay, noncancerous cells; format: cell-based, human; conditions: 72 h, read-out: IC50 and 95%CI
Experimental: (§1) The Alamar blue assay was used to determine cell viability as previously described. Cells were seeded into 96-well plates at a density of 7 × 10^3 cells per well for adherent cells or 3 × 10^4 cells per well for suspended cells. The drug was added to each well after 24 h of incubation for adherent cells or immediately for suspended cells and incubated for an additional 72 h. […] Each well received 100 µM resazurin (Sigma-Aldrich Co. St. Louis, MO, United States) four (for cell lines) or 24 (for primary culture) h before the end of the incubation. A SpectraMax 190 Microplate Reader (Molecular Devices, Sunnyvale, CA, USA) was used to measure absorbance at 570 and 600 nm.

BJ = test: Alamar blue cytotoxicity assay, noncancerous cells; format: cell-based, human; conditions: 72 h, read-out: IC50 and 95%CI
Experimental: as §1

MRC-5 = test: Alamar blue cytotoxicity assay, noncancerous cells; format: cell-based, human; conditions: MRC-5 noncancerous cells, 72 h, read-out: IC50 and 95%CI
Experimental: as §1

## cis-[Ru(phen)2(xant)](PF6) [RXC]
HCT116 cells [1]
  RQ, gene ABCC1: 0.777
  RQ, gene AKT1: 0.624
  RQ, gene AKT2: 0.896
  RQ, gene ATF2: 0.856
  RQ, gene AURKA: 0.343
  RQ, gene AURKB: 0.562
  RQ, gene AURKC: 0.498
  RQ, gene BCL2: 0.944
  RQ, gene BIRC5: 0.499
  RQ, gene CDC25A: 1.174
  RQ, gene CDK1: 1.021
  RQ, gene CDK2: 1.057
  RQ, gene CDK4: 1.065
  RQ, gene CDK5: 0.446
  RQ, gene CDK7: 1.621
  RQ, gene CDK8: 0.943
  RQ, gene CDK9: 0.986
  RQ, gene CTSB: 1.307
  RQ, gene CTSD: 0.826
  RQ, gene CTSL: 1.073
  RQ, gene CTSS: 0.500
  RQ, gene EGFR: 1.135
  RQ, gene ERBB2: 0.312
  RQ, gene ERBB3: 0.814
  RQ, gene ESR1: 1.523
  RQ, gene ESR2: 1.673
  RQ, gene FLT4: 3.841
  RQ, gene GRB2: 1.220
  RQ, gene GSTP1: 0.609
  RQ, gene HDAC1: 0.509
  RQ, gene HDAC2: 0.509
  RQ, gene HDAC3: 0.879
  RQ, gene HDAC4: 1.233
  RQ, gene HDAC6: 0.969
  RQ, gene HDAC7: 0.975
  RQ, gene HDAC8: 0.826
  RQ, gene HDAC11: 1.433
  RQ, gene HIF1A: 0.663
  RQ, gene HRAS: 1.867
  RQ, gene HSP90AA1: 0.353 and 0.35
  RQ, gene HSP90B1: 0.285 and 0.28
  RQ, gene IGF1R: 1.146
  RQ, gene IRF5: 1.472
  RQ, gene KDR: 0.896
  RQ, gene KRAS: 2.847
  RQ, gene MDM2: 2.327
  RQ, gene MDM4: 1.960
  RQ, gene MTOR: 0.595
  RQ, gene NFKB1: 1.055
  RQ, gene NRAS: 0.893
  RQ, gene NTN3: 2.364
  RQ, gene PARP1: 0.485
  RQ, gene PARP4: 0.791
  RQ, gene PDGFRB: 2.249
  RQ, gene PIK3C2A: 1.177
  RQ, gene PIK3C3: 1.485
  RQ, gene PIK3CA: 0.956
  RQ, gene PLK1: 0.890
  RQ, gene PLK2: 1.023
  RQ, gene PLK3: 1.749
  RQ, gene PLK4: 1.081
  RQ, gene PRKCA: 0.567
  RQ, gene PRKCB: 0.993
  RQ, gene PRKCD: 1.557
  RQ, gene PRKCE: 1.461
  RQ, gene PTGS2: 1.461
  RQ, gene RHOA: 0.937
  RQ, gene RHOB: 1.762
  RQ, gene TERT: 0.866
  RQ, gene TNKS: 2.951
  RQ, gene TOP2A: 0.769
  RQ, gene TOP2B: 1.055
  RQ, gene TP53: 1.058
  RQ, gene TXN: 1.184
  RQ, gene TXNRD1: 3.038
HCT116 cells [2]
  clonogenic survival: inhibit the clonogenic survival
PBMC
  pIC50: 5.31
BJ
  pIC50: 6.12
MRC-5
  pIC50: 4.67
